Holding throughout (details): qualitative statement
Assay [1] addresses BRD4 BD1 (Homo sapiens, UniProt O60885). Put plainly: In vitro biochemical assay, BRD4 BD1 inhibition.
Assay [2] addresses BRD4 BD2 (Homo sapiens, UniProt O60885). Put plainly: In vitro biochemical assay, BRD4 BD2 inhibition.
Assay [3] has as its target JAK2 (Homo sapiens, UniProt O60674). Put plainly: In vitro biochemical assay, JAK2 inhibition.
The test system of assay [4] is multiple liquid cancer cell lines. Description: Anti-proliferative activity against liquid cancer cell lines. The class given is cell-based.
For assay [5], the system named is cMYC expression. Put plainly: cMYC expression down-regulation. The class given is cell-based.
For assay [6], the system named is JAK2 signaling. Description: JAK2 signaling down-regulation. The format is cell-based.

SMILES strings stand for the structures.

Sequence of JAK2 (O60674 whole entry): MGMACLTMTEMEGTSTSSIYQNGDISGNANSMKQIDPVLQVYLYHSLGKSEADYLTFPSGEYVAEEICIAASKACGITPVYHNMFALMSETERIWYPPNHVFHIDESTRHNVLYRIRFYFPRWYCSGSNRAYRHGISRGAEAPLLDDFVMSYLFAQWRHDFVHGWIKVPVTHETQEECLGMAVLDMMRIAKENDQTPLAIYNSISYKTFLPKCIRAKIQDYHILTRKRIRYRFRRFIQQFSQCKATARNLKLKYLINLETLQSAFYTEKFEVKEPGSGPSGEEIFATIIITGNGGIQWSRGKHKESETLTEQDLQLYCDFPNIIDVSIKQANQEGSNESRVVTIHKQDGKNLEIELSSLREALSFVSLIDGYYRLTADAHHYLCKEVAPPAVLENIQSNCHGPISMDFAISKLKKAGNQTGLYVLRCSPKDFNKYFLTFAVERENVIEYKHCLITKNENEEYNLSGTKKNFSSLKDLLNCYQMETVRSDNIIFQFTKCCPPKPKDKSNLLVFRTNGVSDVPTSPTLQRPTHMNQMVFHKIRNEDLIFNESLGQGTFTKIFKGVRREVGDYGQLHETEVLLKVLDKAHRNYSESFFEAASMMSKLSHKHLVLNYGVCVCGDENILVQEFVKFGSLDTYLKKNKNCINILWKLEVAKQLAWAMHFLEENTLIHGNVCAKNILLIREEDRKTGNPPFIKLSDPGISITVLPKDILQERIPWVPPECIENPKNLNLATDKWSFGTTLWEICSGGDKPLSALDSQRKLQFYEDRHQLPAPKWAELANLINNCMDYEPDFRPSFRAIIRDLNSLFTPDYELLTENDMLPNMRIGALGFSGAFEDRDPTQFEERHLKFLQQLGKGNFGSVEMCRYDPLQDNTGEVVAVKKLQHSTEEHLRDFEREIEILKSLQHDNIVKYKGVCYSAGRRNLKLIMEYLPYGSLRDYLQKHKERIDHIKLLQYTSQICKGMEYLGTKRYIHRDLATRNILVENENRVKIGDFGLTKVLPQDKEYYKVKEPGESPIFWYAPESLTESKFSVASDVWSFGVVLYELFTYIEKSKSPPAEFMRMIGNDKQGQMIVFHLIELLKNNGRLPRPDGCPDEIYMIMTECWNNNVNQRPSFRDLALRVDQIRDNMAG

Turning to `CN(C)C1CCN(c2ccc(Nc3ncc4ccn(-c5cccc(NS(=O)(=O)C(C)(C)C)c5)c4n3)cc2F)CC1` [OHM-581, N-(3-(2-((4-(4-(dimethylamino)piperidin-1-yl)-3-fluorophenyl)amino)-7H-pyrrolo[2,3-d]pyrimidin-7-yl)phenyl)-2-methylpropane-2-sulfonamide], the “inhibition of BRD4 BD1” value in assay [1] is recorded as “inhibit”. Besides, the “inhibition of BRD4 BD2” value in assay [2] is reported as “inhibit”. Also, the “inhibition of JAK2” value in assay [3] was “inhibit”. In addition, the anti-proliferative activity entry in assay [4] is given as “significant anti-proliferative activity”. Besides, the cMYC expression result in assay [5] was “robustly down-regulates”. Besides, the JAK2 signaling entry in assay [6] is on record as “robustly down-regulates”.

These data come from US20220315594A1, “METHOD OF SYNTHESIS OF COMPOUND FOR DUAL INHIBITION OF JAK2 AND BET” (OHM ONCOLOGY, priority 2019, published 2022).
